# Data taken from US9976141B2, “Compositions and methods for inhibiting gene expression of Hif2alpha” (Arrowhead Madison Inc., priority 2015, dated 2018).
# Strand notation (5' to 3'): a small letter for the sugar, then the base; units joined by * are phosphorothioate-linked, units joined directly phosphodiester-linked; [ ] holds rarer units or linkages, { } end groups; capitals alone tell only the bases. d = 2'-deoxy (DNA); m = 2'-O-methyl; f = 2'-fluoro
# Test system: human EPAS1 (Hif2α) cDNA in psiCHECK2 (Renilla luciferase/EPAS1 fusion mRNA) in Hep3B cells
# Test: Efficacy screen of Hif2α RNAi triggers in vitro, dual-luciferase reporter assay (1 nM and 0.1 nM)
# Assay type: cell-based
# Settings: Hep3B cells co-transfected with EPAS1-psiCHECK2, Renilla luciferase normalized to firefly luciferase
# Summary of the method: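 Hep3B cells (10,000/well) co-transfected with chemically modified siRNA triggers at 1 nM and 0.1 nM plus 25 ng EPAS1-psiCHECK2 plasmid via LipoFectamine 2000. Knockdown measured as Renilla luciferase from the EPAS1 fusion mRNA, normalized to constitutive firefly luciferase by dual-luciferase assay.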
Substance,Relative Rluc-Hif2α (0.1 nM RNAi trigger),Relative Rluc-Hif2α (1 nM RNAi trigger)
2285 (sense fCmAfUmCfUmAfCmAfAmCfCmCfUmCfGmCfAmAfAdT; antisense dTfUmUfGmCfGmAfGmGfGmUfUmGfUmAfGmAfUmGdT*dT; siRNA) [compound 2285],1.109 ± 0.247,0.723 ± 0.088
2288 (sense fUmAfCmAfAmCfCmCfUmCfGmCfAmAfCmCfUmGfAdT; antisense dTfCmAfGmGfUmUfGmCfGmAfGmGfGmUfUmGfUmAdT*dT; siRNA) [compound 2288],0.943 ± 0.029,0.932 ± 0.118
2412 (sense fUmCfCmUfAmCfUmGfAmCfAmAfCmAfUmUfAmUfAdT; antisense dTfAmUfAmAfUmGfUmUfGmUfCmAfGmUfAmGfGmAdT*dT; siRNA) [compound 2412],0.515 ± 0.037,0.291 ± 0.014
2361 (sense fGmGfAmGfCmAfCmUfGmCfGmCfGmCfUmAfUmCfAdT; antisense dTfGmAfUmAfGmCfGmCfGmCfAmGfUmGfCmUfCmCdT*dT; siRNA) [compound 2361],0.800 ± 0.198,0.603 ± 0.133
2402 (sense fAmCfCmUfGmUfCmAfAmCfGmUfAmAfCmGfAmUfAdT; antisense dTfAmUfCmGfUmUfAmCfGmUfUmGfAmCfAmGfGmUdT*dT; siRNA) [compound 2402],0.389 ± 0.060,0.128 ± 0.015
2332 (sense fUmAfCmAfAmGfAmUfGmGfAmCfUmUfAmCfCmUfAdT; antisense dTfAmGfGmUfAmAfGmUfCmCfAmUfCmUfUmGfUmAdT*dT; siRNA) [compound 2332],1.174 ± 0.027,0.871 ± 0.235
2385 (sense fUmGfGmUfUmUfUmUfCmAfAmUfAmCfCmAfAmUfAdT; antisense dTfAmUfUmGfGmUfAmUfUmGfAmAfAmAfAmCfCmAdT*dT; siRNA) [compound 2385],0.701 ± 0.178,0.515 ± 0.089
2372 (sense fGmUfUmGfCmUfAmGfCmCfCmUfUmCfAmAfGmUfAdT; antisense dTfAmCfUmUfGmAfAmGfGmGfCmUfAmGfCmAfAmCdT*dT; siRNA) [compound 2372],0.831 ± 0.103,0.514 ± 0.044
2354 (sense fCmCfAmUfAmGfGmUfGmUfGmAfCmAfAmUfCmCfAdT; antisense dTfGmGfAmUfUmGfUmCfAmCfAmCfCmUfAmUfGmGdT*dT; siRNA) [compound 2354],1.043 ± 0.239,0.741 ± 0.189
2336 (sense fAmCfAmAfGmUfUmUfGmGfUmGfCmAfUmGfUmCfAdT; antisense dTfGmAfCmAfUmGfCmAfCmCfAmAfAmCfUmUfGmUdT*dT; siRNA) [compound 2336],0.783 ± 0.037,0.299 ± 0.034
2286 (sense fAmUfCmUfAmCfAmAfCmCfCmUfCmGfCmAfAmCfAdT; antisense dTfGmUfUmGfCmGfAmGfGmGfUmUfGmUfAmGfAmUdT*dT; siRNA) [compound 2286],1.291 ± 0.367,0.878 ± 0.078
2365 (sense fCmUfGmAfUmGfGmCfAmCfGmUfUmGfUmGfGmGfAdT; antisense dTfCmCfCmAfCmAfAmCfGmUfGmCfCmAfUmCfAmGdT*dT; siRNA) [compound 2365],1.132 ± 0.107,1.259 ± 0.247
2343 (sense fCmUfCmCfAmAfCmGfUmAfUmGfUmGfGmUfUmAfAdT; antisense dTfUmAfAmCfCmAfCmAfUmAfCmGfUmUfGmGfAmGdT*dT; siRNA) [compound 2343],0.620 ± 0.208,0.254 ± 0.009
2298 (sense fAmUfGmCfAmGfUmAfCmCfCmAfGmAfCmGfGmAfAdT; antisense dTfUmCfCmGfUmCfUmGfGmGfUmAfCmUfGmCfAmUdT*dT; siRNA) [compound 2298],0.729 ± 0.092,0.695 ± 0.037
